Data reported in article PMC11923385, “Rational Design, Synthesis, and Biological Assessment of Potential Indole‐Capped HDAC6 Inhibitors for Gastric Cancer Suppression” (MedComm, 2025).
Where two headings read alike, the source gives them in different places.

Tests used:
MGC‐803 cells [1] = experiment: PD-L1 expression in MGC-803 cells; format: cell-based; settings: compared to vehicle control
HDAC3 = HDAC3 (Homo sapiens, UniProt O15379); experiment: HDAC3 enzyme activity assay; format: biochemical; settings: HDAC3 compared to HDAC6
Sequence of HDAC3 (O15379 whole entry, species assumed): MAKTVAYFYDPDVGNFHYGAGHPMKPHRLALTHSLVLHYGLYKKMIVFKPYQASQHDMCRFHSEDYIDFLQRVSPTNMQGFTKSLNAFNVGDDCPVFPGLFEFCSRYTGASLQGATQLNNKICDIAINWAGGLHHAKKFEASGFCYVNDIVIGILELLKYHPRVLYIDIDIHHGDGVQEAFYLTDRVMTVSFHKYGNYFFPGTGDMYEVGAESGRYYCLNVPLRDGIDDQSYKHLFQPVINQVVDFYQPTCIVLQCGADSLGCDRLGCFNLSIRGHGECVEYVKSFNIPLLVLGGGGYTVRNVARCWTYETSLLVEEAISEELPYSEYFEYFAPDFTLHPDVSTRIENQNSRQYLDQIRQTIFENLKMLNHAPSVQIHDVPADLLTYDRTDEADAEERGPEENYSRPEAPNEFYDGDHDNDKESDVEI
Sequence of HDAC3 (Q9Y618 395-489 partner limits assumed, species assumed): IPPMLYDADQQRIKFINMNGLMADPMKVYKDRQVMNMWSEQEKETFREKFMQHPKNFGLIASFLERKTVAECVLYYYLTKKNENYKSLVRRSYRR

HDAC1 = HDAC1 (Homo sapiens, UniProt Q13547); experiment: HDAC1 enzyme activity assay; format: biochemical; settings: HDAC1 compared to HDAC6
Sequence of HDAC1 (Q13547 whole entry, species assumed): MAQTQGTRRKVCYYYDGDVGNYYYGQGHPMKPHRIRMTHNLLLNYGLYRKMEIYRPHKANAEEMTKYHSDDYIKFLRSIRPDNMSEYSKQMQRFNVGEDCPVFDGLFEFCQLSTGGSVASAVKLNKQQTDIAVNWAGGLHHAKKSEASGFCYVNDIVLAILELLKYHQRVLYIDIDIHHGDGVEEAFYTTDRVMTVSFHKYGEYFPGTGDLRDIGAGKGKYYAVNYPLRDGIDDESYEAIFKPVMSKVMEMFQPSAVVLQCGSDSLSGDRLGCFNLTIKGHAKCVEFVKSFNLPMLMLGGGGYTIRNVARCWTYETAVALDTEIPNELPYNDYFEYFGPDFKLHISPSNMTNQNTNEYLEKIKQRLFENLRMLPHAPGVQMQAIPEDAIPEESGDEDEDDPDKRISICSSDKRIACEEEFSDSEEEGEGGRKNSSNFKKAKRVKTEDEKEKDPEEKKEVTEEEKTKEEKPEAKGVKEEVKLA

[2] = tested on: HDAC6 (Ac‐α‐tubulin, Ac‐H3 readout); experiment: Western blot of HDAC6, Ac-H3 and Ac-α-tubulin in cells; format: cell-based
Protocol: (§1) Following the indicated treatment, cells were collected and lysed using the recommended amount of radio immunoprecipitation assay (RIPA) buffer from KMT Bio, China, according to the provided instructions. The protein concentration in the lysate was determined using a bicinchoninic acid (BCA)-based protein quantification kit from KMT Bio, China. Subsequently, the samples were denatured in the presence of a 6× loading buffer from KMT Bio, China. Equal amounts of denatured protein samples were subjected to sodium dodecyl sulfate-polyacrylamide gel electrophoresis (SDS-PAGE), and the target protein was then transferred to a nitrocellulose membrane using the wet transfer method with Pall, USA membranes. The membrane was incubated with 5% non-fat milk at 37°C for 1 hour to block non-specific binding, followed by an overnight incubation at 4°C with the recommended concentration of the primary antibody. Afterward, the membranes were washed three times with PBST (PBS buffer with 0.1% Tween-20) for 10 minutes each. The secondary antibody was then appropriately diluted and incubated with the membrane at room temperature for 1 hour. Finally, the membranes were washed three more times with PBST for 10 minutes each, and the protein bands were visualized using an ECL chemiluminescence detection kit from ThermoFisher, USA.

MFC cells = format: in vivo, mice; settings: for tumor growth inhibition rate (TGI): MFC tumor, 615 mice, 14 days
Protocol: Six-week-old 615 mice (male) were procured from SJA laboratory animals in Hunan, China, and acclimated to a pathogen-free environment for one week before the commencement of the experiment. Subsequently, 5 × 10^5 of gastric cancer cell MFC were subcutaneously administered into the right flank of the mice. Tumor volume was determined using the formula length × width^2/2. […] Following 14 days, the mice were euthanized, and their tumors and vital organs were dissected for analysis. Paraffin sections measuring 4 µm in thickness were subjected to deparaffinization and subsequently treated with 3% hydrogen peroxide to inhibit endogenous peroxidase activity. Following this, slides were prepared to prevent nonspecific antibody binding and were then exposed to primary antibodies targeting HDAC6, Ac-tubulin, Ki-67, and Tunnel. The mice involved in the study were maintained in specific pathogen-free environments, and the experimental procedures were approved by the Ethics Committee of the Zhengzhou University Health Science Centre. The animal experimentation ethics number is ZZU-URIB-2024-O-109. All experimental animals adhered to the ARRIVE guidelines and were strictly in accordance with the National Research Council Guidelines for the Care and Use of Laboratory Animals.

HDAC6 [3] = molecular target: T1, HDAC6 (Homo sapiens, UniProt Q9UBN7); experiment: HDAC6 enzymatic assay (Ac-Lys-AMC substrate, fluorescence); format: biochemical; parameters: purchased BPS bioscience, USA; settings: enzyme activity assay
T1 sequence (Q9UBN7 1-1215): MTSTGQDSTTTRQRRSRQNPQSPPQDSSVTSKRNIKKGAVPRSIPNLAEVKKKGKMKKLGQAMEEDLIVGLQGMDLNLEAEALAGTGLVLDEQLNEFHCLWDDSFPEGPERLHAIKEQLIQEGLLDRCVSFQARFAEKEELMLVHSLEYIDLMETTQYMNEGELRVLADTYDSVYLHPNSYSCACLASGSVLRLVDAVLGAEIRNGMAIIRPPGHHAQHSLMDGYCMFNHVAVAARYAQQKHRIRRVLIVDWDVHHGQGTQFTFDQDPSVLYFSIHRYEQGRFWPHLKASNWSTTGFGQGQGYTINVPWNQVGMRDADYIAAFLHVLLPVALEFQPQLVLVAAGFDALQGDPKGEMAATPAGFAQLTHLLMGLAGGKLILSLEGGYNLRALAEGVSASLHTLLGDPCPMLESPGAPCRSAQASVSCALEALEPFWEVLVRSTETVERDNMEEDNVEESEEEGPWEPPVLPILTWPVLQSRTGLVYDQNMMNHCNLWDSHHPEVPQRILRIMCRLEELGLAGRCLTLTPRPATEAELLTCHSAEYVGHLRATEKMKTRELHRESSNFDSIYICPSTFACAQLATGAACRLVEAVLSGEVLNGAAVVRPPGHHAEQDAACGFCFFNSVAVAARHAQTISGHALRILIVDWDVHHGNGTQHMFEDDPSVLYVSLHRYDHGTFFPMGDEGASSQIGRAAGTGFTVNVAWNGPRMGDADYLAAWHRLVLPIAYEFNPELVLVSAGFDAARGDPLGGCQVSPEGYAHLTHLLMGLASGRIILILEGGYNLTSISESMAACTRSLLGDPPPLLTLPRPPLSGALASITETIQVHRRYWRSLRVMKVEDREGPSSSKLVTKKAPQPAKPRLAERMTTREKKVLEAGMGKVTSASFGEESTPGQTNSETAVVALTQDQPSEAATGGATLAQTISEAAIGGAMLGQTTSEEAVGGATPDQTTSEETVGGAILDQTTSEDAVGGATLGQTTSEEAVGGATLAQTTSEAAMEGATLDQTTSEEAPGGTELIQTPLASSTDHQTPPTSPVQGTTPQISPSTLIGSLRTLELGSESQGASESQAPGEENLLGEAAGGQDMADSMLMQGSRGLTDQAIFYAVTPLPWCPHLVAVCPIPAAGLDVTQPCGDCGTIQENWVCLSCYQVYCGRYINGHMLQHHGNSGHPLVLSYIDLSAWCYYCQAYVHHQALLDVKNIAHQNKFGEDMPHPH
Protocol: (§2) The HDAC6 substrate Ac-Lys-AMC (Chinapeptides, China), human recombinant protein HDAC6 (100 ng/mL) (BPS bioscience, USA), and the test compounds were incubated together at 37°C in an assay buffer. The assay buffer consisted of 25 mM HEPES (pH 7.5), 100 mM NaCl, 2.5 mM KCl, 0.005% Tween-20, 1 mM MgCl2, and 0.1 mg/mL bovine serum albumin. After incubation for 1 hour, trypsin was added to release the fluorescent fragment.

[4] = Pharmacokinetic study in mice; format: in vivo; settings: male, ICR, mouse, plasma
Protocol: Six male ICR mice were divided into two groups, receiving compound 10n via intravenous and oral administration, respectively. The intravenous injection group had blood samples collected at 5 min, 15 min, 30 min, 1 h, 2 h, 4 h, 6 h, 8 h, and 24 h post-administration; the oral group had blood samples collected at the same time points. Approximately 0.05 mL of blood was collected for each sample. The concentration of compound 10n in mouse plasma samples was determined using LC-MS/MS method and pharmacokinetic parameters were calculated using WinNolin software.

HDAC2 = HDAC2 (Homo sapiens, UniProt Q92769); experiment: HDAC2 enzyme activity assay; format: biochemical; settings: HDAC2 compared to HDAC6
Sequence of HDAC2 (Q92769 whole entry, species assumed): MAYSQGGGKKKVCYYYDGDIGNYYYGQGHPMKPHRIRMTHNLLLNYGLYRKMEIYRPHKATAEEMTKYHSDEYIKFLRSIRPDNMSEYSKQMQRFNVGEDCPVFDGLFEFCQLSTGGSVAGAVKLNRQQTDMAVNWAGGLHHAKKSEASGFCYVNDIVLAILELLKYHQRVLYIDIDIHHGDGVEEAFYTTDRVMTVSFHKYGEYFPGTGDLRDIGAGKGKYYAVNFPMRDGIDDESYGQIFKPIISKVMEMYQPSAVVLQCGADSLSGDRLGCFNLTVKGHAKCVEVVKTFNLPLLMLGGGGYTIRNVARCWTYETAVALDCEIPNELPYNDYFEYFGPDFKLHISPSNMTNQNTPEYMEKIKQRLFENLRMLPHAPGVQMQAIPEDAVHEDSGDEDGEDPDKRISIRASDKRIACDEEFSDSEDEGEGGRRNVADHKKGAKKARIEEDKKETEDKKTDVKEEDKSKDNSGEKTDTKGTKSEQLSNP

gastric cancer cells = experiment: Apoptosis, mitochondrial membrane potential and apoptosis protein expression in gastric cancer cells; format: cell-based
Protocol: as §1

HDAC8 = molecular target: T2, HDAC8 (Homo sapiens, UniProt Q9BY41); experiment: HDAC8 enzyme activity assay; format: biochemical; settings: HDAC8 compared to HDAC6
T2 sequence (Q9BY41 1-377): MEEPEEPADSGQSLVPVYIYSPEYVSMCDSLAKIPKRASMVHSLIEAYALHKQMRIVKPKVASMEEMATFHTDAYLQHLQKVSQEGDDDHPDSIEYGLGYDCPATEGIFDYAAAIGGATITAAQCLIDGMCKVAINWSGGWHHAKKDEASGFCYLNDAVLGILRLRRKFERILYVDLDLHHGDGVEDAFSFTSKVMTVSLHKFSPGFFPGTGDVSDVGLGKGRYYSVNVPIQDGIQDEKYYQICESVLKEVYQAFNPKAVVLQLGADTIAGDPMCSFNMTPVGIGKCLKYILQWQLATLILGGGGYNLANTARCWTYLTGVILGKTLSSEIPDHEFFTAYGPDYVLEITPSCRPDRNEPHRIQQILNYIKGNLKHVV
Protocol: as §2

HDAC6 [5] = molecular target: T1, HDAC6; experiment: BLI binding assay; settings: biotinylated HDAC6 on streptavidin biosensors
Protocol: BLI experiments were conducted using an Octet Red 96 instrument (ForteBio). Streptavidin-coated biosensors (SA, ForteBio) were utilized, and biotinylated HDAC6 protein (50 μg/mL) was immobilized on the biosensor surface. The immobilization levels typically exceeded 0.3 nm. Ligand-loaded SA biosensors were then exposed to various concentrations of compound 10n. The dissociation constants for the interactions between HDAC6 and compound 10n were determined by plotting the increase in BLI response as a function of […].

MKN‐45 cells = experiment: Cytotoxicity against MKN-45 cells; format: cell-based; settings: Homo sapiens, 72 h
MGC‐803 cells [6] = experiment: Cytotoxicity against MGC-803 cells; format: cell-based; settings: Homo sapiens, 72 h
HDAC6 [7] = molecular target: T1, HDAC6; experiment: CETSA of HDAC6 at the cellular level; format: cell-based

Question: Which results are given for `O=C(NO)c1ccc(CNC(=O)c2cn(CC3CC3)c3ccccc23)cc1` [Compound 10n]?
Answer: PD-L1 expression (MGC‐803 cells [1]): dose‐dependent reduction; selectivity ratio HDAC3/6 (HDAC3): 82.8 fold; selectivity ratio HDAC1/6 (HDAC1): 133.7 fold; acetylated H3 levels and HDAC6 [2]: no impact; acetylated α-tubulin levels [2]: dose‐dependent increase; tumor growth inhibition rate (TGI) (MFC cells; oral 10 mg/kg once daily): 55.3%; tumor growth inhibition rate (TGI) (MFC cells; oral 20 mg/kg once daily): 80.6%; toxicity in treated mice (body weight, organs) (MFC cells; MFC tumor-bearing mice, 10 or 20 mg/kg oral): no apparent toxicity; HDAC6 protein expression in treated animals (MFC cells; tumor tissue): no changes; Ki-67 expression in mice (MFC cells; tumor tissue): decreased; levels of Ac-α-tubulin in treated animals (MFC cells; tumor tissue, immunohistochemistry): markedly elevated; percentages of CD3+CD8+ cells in tumors (MFC cells; two treatment groups versus control): higher than the control; IC50 (HDAC6 [3]): 3.11 nM; AUC ([4]; iv): 350 ± 51.9 ng·h/mL; half-life ([4]; iv): 1.61 ± 0.34 h; AUC ([4]; po): 730 ± 140 ng·h/mL; bioavailability ([4]; po): 41.8 ± 0.08%; half-life ([4]; po): 2 ± 0.44 h; selectivity ratio HDAC2/6 (HDAC2): 27.8 fold; mitochondrial membrane potential ratios (gastric cancer cells): increase; proportion of apoptotic cells (gastric cancer cells): dose‐dependent increase; selectivity ratio HDAC8/6 (HDAC8): 622.22 fold; Kd (HDAC6 [5]): 330 ± 180 nM; IC50 (MKN‐45 cells): 2700 ± 935 nM; IC50 (MGC‐803 cells [6]): 1070 ± 312 nM; HDAC6 thermal stabilization (CETSA) (HDAC6 [7]): notably stabilized HDAC6
